Among the test systems are A549; EKVX; HCT-15; HL-60; HOP-62; HT-29; K562; KM12; Malme-3M; NCI-H522; OVCAR-8; SF-268; SF-295; SK-MEL-5; SNB-19; UO-31.
Holding throughout (test): DTP human tumour cell line panel, 48 h

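Results reflect a 48-hour exposure of cells in 96-well plates to compound at five concentrations. GI50 marks 50% less growth.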 Calls of active or inactive are those of the source. Cut-off read from the data, not from the text of the source: active = GI50 up to about 1.1 µM and inactive = higher.

As a reminder, the GI50 is the concentration that inhibits growth by half. For `O=C(N/C(=C\c1ccc(/C=C(\NC(=O)c2ccccc2)c2nc3ccccc3s2)cc1)c1nc2ccccc2s1)c1ccccc1`, the GI50 is 13.5 µM (inactive) with A549; 1.83 µM (inactive) in the assay with EKVX; 4.6 µM in the assay on HCT-15; 1.71 µM (inactive) in the assay on HL-60; 18.4 µM (inactive) in the assay with HOP-62; 3.73 µM (inactive) with HT-29. The GI50 in the assay on K562 was 5.38 µM (inactive); with KM12 it was 8.45 µM (inactive); in the assay on Malme-3M, 11.9 µM (inactive); in the assay with NCI-H522, 2.13 µM (inactive); in the assay with OVCAR-8, 2.34 µM (inactive); in the assay with SF-268, 6.3 µM (inactive). The GI50 is 4.5 µM (inactive) with SF-295, 4.88 µM (inactive) in the assay on SK-MEL-5, 4.09 µM (inactive) in the assay on SNB-19 and 2.86 µM (inactive) in the assay on UO-31.
As to `Cc1nc2c(nc1C)C(=O)c1cc(O)ccc1C2=O`, the GI50 in the assay on A549 was 77.6 µM (inactive); with EKVX, > 100 µM (inactive); in the assay on HCT-15, 36.9 µM; in the assay on HL-60, 31 µM (inactive); in the assay on HOP-62, 69.5 µM (inactive); in the assay with HT-29 it was 35.2 µM (inactive). Also, the GI50 in the assay with K562 was > 70.3 µM (inactive); in the assay on KM12 it was > 100 µM (inactive); in the assay on Malme-3M it was 20.5 µM (inactive); with NCI-H522, 57.4 µM (inactive); with OVCAR-8, 53.2 µM (inactive); in the assay on SF-268 it was 74.3 µM (inactive). Further, the GI50 was > 87.1 µM (inactive) with SF-295, 15.6 µM (inactive) in the assay on SK-MEL-5, 99.1 µM (inactive) in the assay with SNB-19 and > 100 µM (inactive) with UO-31.
Consider `Cc1cc(C)c(S(=O)(=O)ONC(=O)OC(C)(C)C)c(C)c1`, for which the GI50 in the assay with A549 is > 100 µM (inactive); in the assay with EKVX, > 100 µM (inactive); in the assay on HCT-15, greater than 100 µM; with HL-60, > 100 µM (inactive); in the assay on HOP-62 it was > 100 µM (inactive); in the assay on HT-29 it was > 100 µM (inactive). In addition, the GI50 in the assay with K562, with KM12, in the assay on Malme-3M, in the assay with NCI-H522, with OVCAR-8 and in the assay with SF-268 was > 100 µM (inactive) in each case. For the same molecule, the GI50 in the assay on SF-295, in the assay with SK-MEL-5, in the assay on SNB-19 and in the assay with UO-31 was > 100 µM (inactive) throughout.
Turning to `NC(=O)C(=O)C1CCC2=C(Sc3ccccc3N2)C1=O` (stereo not given), the GI50 with A549 was > 100 µM (inactive); with EKVX, > 100 µM (inactive); in the assay with HCT-15 it was greater than 100 µM; in the assay on HL-60 it was > 100 µM (inactive); with HOP-62 it was > 100 µM (inactive); in the assay on K562, > 100 µM (inactive). The GI50 with KM12 was > 100 µM (inactive); with Malme-3M, > 100 µM (inactive); in the assay on NCI-H522, 37.5 µM (inactive); in the assay on OVCAR-8, > 100 µM (inactive); in the assay on SF-268, > 100 µM (inactive); with SK-MEL-5, > 100 µM (inactive). Besides, the GI50 in the assay on SNB-19 and with UO-31 was > 100 µM (inactive) each time.
Consider `COC(=O)C1(C(=O)OC)CC(=O)c2cc3c(cc2-c2c(cc(OC)c(OC)c2OC)C1)OCO3`, for which the GI50 with A549 was > 211 µM (inactive); in the assay on EKVX, > 211 µM (inactive); in the assay on HCT-15, 204 µM; with HL-60, 67.1 µM (inactive); with HOP-62, > 211 µM (inactive); in the assay on HT-29, > 211 µM (inactive). Also, the GI50 in the assay with K562 was 139 µM (inactive); in the assay on KM12 it was 71.6 µM (inactive); in the assay on Malme-3M, > 211 µM (inactive); in the assay with NCI-H522 it was 96.4 µM (inactive); in the assay with OVCAR-8 it was 139 µM (inactive); in the assay with SF-268, > 211 µM (inactive). Moreover, the GI50 in the assay on SF-295 is 80.4 µM (inactive); with SK-MEL-5, 123 µM (inactive); in the assay on SNB-19 it was 55.3 µM (inactive).
In the case of `CN(C)c1nc(N(C)C)n2nc(-c3ccccc3[N+](=O)[O-])nc2n1`, the GI50 in the assay on A549 was > 100 µM (inactive); in the assay with EKVX it was > 100 µM (inactive); in the assay on HCT-15, 16.3 µM; with HL-60, > 100 µM (inactive); in the assay with HOP-62, > 100 µM (inactive); in the assay on HT-29, > 100 µM (inactive). The GI50 in the assay with K562, in the assay on KM12, in the assay on Malme-3M, with NCI-H522, in the assay on OVCAR-8 and in the assay on SF-268 was > 100 µM (inactive) each time. Besides, the GI50 in the assay on SF-295, in the assay with SK-MEL-5, with SNB-19 and in the assay on UO-31 was > 100 µM (inactive) throughout.
As for `CC1CC(=O)c2c(ccc3c2C(=O)c2cccc(O)c2C3=O)C1` (stereo not given), the GI50 was 7.16 µM (inactive) in the assay with A549; 14.6 µM (inactive) in the assay with EKVX; 9.14 µM with HCT-15; 2.77 µM (inactive) in the assay with HL-60; > 10 µM (inactive) in the assay with HOP-62; 3.74 µM (inactive) with HT-29. The GI50 is 2.77 µM (inactive) in the assay with K562; 12.7 µM (inactive) in the assay with KM12; 6.93 µM (inactive) with Malme-3M; 4.37 µM (inactive) with NCI-H522; 2.56 µM (inactive) in the assay on OVCAR-8; 10.4 µM (inactive) in the assay on SF-268. Besides, the GI50 in the assay with SF-295 was 10.9 µM (inactive); with SK-MEL-5, 2.31 µM (inactive); in the assay on SNB-19, 12.2 µM (inactive); in the assay with UO-31, 11.5 µM (inactive).
Take `O=C1C(Cl)C(c2cccc(O)c2)N1n1cnc2ccccc2c1=O` (stereo not given): the GI50 with A549 was > 100 µM (inactive); in the assay with EKVX it was 64.3 µM (inactive); with HCT-15 it was greater than 100 µM; in the assay on HL-60, 64.7 µM (inactive); in the assay with HOP-62, > 100 µM (inactive); with HT-29, > 100 µM (inactive). For the same molecule, the GI50 is 49.1 µM (inactive) with K562; > 100 µM (inactive) in the assay on Malme-3M; > 100 µM (inactive) in the assay on NCI-H522; > 100 µM (inactive) in the assay on OVCAR-8; > 100 µM (inactive) in the assay with SF-268; > 100 µM (inactive) in the assay with SF-295. The GI50 in the assay with SK-MEL-5 is > 100 µM (inactive); in the assay with SNB-19, 49.5 µM (inactive); in the assay with UO-31 it was 15 µM (inactive).
As for `Cc1cccc(-c2nnc3s/c(=C\c4ccc(N(C)C)cc4)c(=O)n23)c1`, the GI50 in the assay on A549, in the assay with EKVX, in the assay on HL-60, with HOP-62, with K562 and in the assay on KM12 was > 100 µM (inactive) in each case. The GI50 with Malme-3M, in the assay on NCI-H522, in the assay on OVCAR-8, in the assay on SF-268, in the assay with SF-295 and in the assay with SK-MEL-5 was > 100 µM (inactive) in each case. Further, the GI50 with SNB-19 and with UO-31 was > 100 µM (inactive) throughout.
In the case of `CCCC(O)c1ccc2[nH]c3c(C)cc([N+](=O)[O-])c(C)c3c2c1` (stereo not given), the GI50 is 39.3 µM (inactive) in the assay on A549; > 100 µM (inactive) in the assay with EKVX; greater than 100 µM in the assay on HCT-15; > 100 µM (inactive) with HL-60; > 100 µM (inactive) with HOP-62; 68.1 µM (inactive) in the assay on HT-29. In addition, the GI50 with K562 was 57.4 µM (inactive); in the assay with KM12, > 100 µM (inactive); with Malme-3M, > 100 µM (inactive); in the assay with NCI-H522, > 100 µM (inactive); with OVCAR-8 it was > 100 µM (inactive); in the assay on SF-268, > 100 µM (inactive). The GI50 in the assay on SF-295 was 95.1 µM (inactive); in the assay on SK-MEL-5 it was > 100 µM (inactive); with SNB-19, > 100 µM (inactive); with UO-31, > 100 µM (inactive).
As to `O=C(Oc1ccc2c(-c3ccccc3)c(C(=O)Nc3ccc(Cl)cc3)c(=O)oc2c1)c1ccccc1`, the GI50 in the assay on A549 was > 100 µM (inactive); in the assay on EKVX, > 100 µM (inactive); in the assay on HCT-15, greater than 100 µM; in the assay on HL-60, > 100 µM (inactive); with HOP-62, > 100 µM (inactive); in the assay with HT-29 it was > 100 µM (inactive). Also, the GI50 with K562, in the assay with KM12, in the assay with Malme-3M, in the assay on NCI-H522, in the assay with OVCAR-8 and in the assay on SF-295 was > 100 µM (inactive) throughout. Besides, the GI50 in the assay on SK-MEL-5, in the assay with SNB-19 and in the assay on UO-31 was > 100 µM (inactive) each time.
As for `CCOC(=O)C(CC/C=C\c1ccccc1)N1CCC[C@H]1C(=O)OC` (stereo not given in full), the GI50 in the assay on A549 is > 100 µM (inactive); in the assay on EKVX, > 100 µM (inactive); in the assay with HL-60, 35.8 µM (inactive); with HOP-62 it was > 100 µM (inactive); in the assay on HT-29, > 100 µM (inactive); in the assay with K562, 49.4 µM (inactive). For the same molecule, the GI50 with KM12, in the assay with Malme-3M, with NCI-H522, in the assay on OVCAR-8, with SF-268 and in the assay on SF-295 was > 100 µM (inactive) each time. Further, the GI50 in the assay with SK-MEL-5, with SNB-19 and in the assay on UO-31 was > 100 µM (inactive) each time.
Consider `COC1=CC(=O)[C@]2(C)[C@H](C1=O)C(C)[C@H]2c1ccc(OC)cc1` (stereo not given in full), for which the GI50 was > 100 µM (inactive) in the assay with A549; > 100 µM (inactive) in the assay with EKVX; greater than 100 µM in the assay with HCT-15; > 100 µM (inactive) in the assay on HL-60; > 100 µM (inactive) with HOP-62; > 100 µM (inactive) in the assay with HT-29. Also, the GI50 in the assay on K562, in the assay on KM12, in the assay on Malme-3M, with NCI-H522, in the assay on OVCAR-8 and in the assay with SF-268 was > 100 µM (inactive) in each case. Further, the GI50 is > 100 µM (inactive) in the assay with SF-295, > 100 µM (inactive) in the assay on SK-MEL-5, > 100 µM (inactive) in the assay on SNB-19 and 82 µM (inactive) with UO-31.

Source of the values: ChEMBL document CHEMBL1201862, “PubChem BioAssay data set” (2004).
